Results taken from the NIST ThermoML archive (doi:10.1016/j.jct.2015.09.031).

Assay: molar heat capacity at constant pressure
Conditions: Liquid, Flow calorimetry

CCCCCCC(=O)OCC [ethyl heptanoate]
Conditions	molar heat capacity at constant pressure [J/K/mol]
305.4 K, 100 kPa	318.3
305.4 K, 4040 kPa	317.7
305.4 K, 8190 kPa	317.3
305.4 K, 12090 kPa	316.8
305.5 K, 16070 kPa	316.4
315.7 K, 100 kPa	322.5
315.8 K, 4190 kPa	322
315.9 K, 8150 kPa	321.6
315.9 K, 12260 kPa	320.5
316 K, 16160 kPa	319.6
326.2 K, 16030 kPa	323.6
326.5 K, 100 kPa	326.8
326.5 K, 4140 kPa	325.9
326.6 K, 8170 kPa	325.2
326.6 K, 12110 kPa	324.3
335.3 K, 100 kPa	330.3
335.3 K, 4060 kPa	330.1
335.4 K, 8050 kPa	328.6
335.4 K, 12030 kPa	327.6
335.5 K, 16070 kPa	326.9
345.1 K, 100 kPa	334.2
345.2 K, 4070 kPa	333.5
345.6 K, 8230 kPa	332.5
345.7 K, 12160 kPa	332.2
345.7 K, 16230 kPa	330.5
354.2 K, 100 kPa	337.8
354.2 K, 4120 kPa	337.3
354.3 K, 8010 kPa	336.5
354.4 K, 12390 kPa	335.6
354.5 K, 16250 kPa	334.5
364.9 K, 100 kPa	342.1
365.3 K, 3870 kPa	341.3
365.6 K, 8320 kPa	340.3
365.7 K, 12160 kPa	339.5
365.8 K, 15950 kPa	338.3
374.8 K, 100 kPa	346.1
375 K, 3980 kPa	345.5
375.5 K, 8020 kPa	344
375.7 K, 12070 kPa	342.6
375.9 K, 16040 kPa	341.4
384 K, 100 kPa	349.8
385 K, 4020 kPa	349.1
385.4 K, 8040 kPa	347.1
385.5 K, 11880 kPa	346.1
385.7 K, 15890 kPa	345.6

CCOC(=O)/C=C/c1ccccc1 [ethyl trans-3-phenylpropenoate]
Conditions	molar heat capacity at constant pressure [J/K/mol]
306.7 K, 100 kPa	299.7
306.7 K, 3970 kPa	297.7
306.8 K, 7840 kPa	297.2
306.9 K, 11640 kPa	295.5
307.1 K, 15780 kPa	294.4
315.8 K, 100 kPa	302.2
315.8 K, 4120 kPa	301.9
315.9 K, 8120 kPa	300.4
316 K, 11870 kPa	299.4
316.1 K, 15790 kPa	297.4
325.2 K, 100 kPa	307.1
325.5 K, 3970 kPa	304.6
325.6 K, 8000 kPa	303
325.8 K, 11720 kPa	301.8
325.8 K, 16030 kPa	301
334.6 K, 100 kPa	311.1
334.8 K, 3970 kPa	309.5
334.9 K, 8070 kPa	308
335 K, 11750 kPa	306.6
335.1 K, 16080 kPa	303.6
345.1 K, 100 kPa	315.3
345.2 K, 3910 kPa	313.4
345.3 K, 7970 kPa	312
345.4 K, 11840 kPa	310.1
345.6 K, 15760 kPa	308.2
355.3 K, 11990 kPa	313.5
355.5 K, 16020 kPa	312.1
355.6 K, 100 kPa	320.2
355.7 K, 3930 kPa	316.6
355.8 K, 7990 kPa	315.4
366 K, 100 kPa	324.5
366.3 K, 4210 kPa	321.3
366.5 K, 8030 kPa	319.6
366.6 K, 12140 kPa	318.6
366.9 K, 16090 kPa	316.8
375.6 K, 100 kPa	328.3
375.8 K, 4120 kPa	326
375.9 K, 8030 kPa	323.8
376.2 K, 12180 kPa	321.6
376.4 K, 16170 kPa	320.4
385.6 K, 100 kPa	332.5
385.9 K, 4170 kPa	330.4
386.1 K, 8090 kPa	329.1
386.3 K, 12160 kPa	327.2
386.5 K, 16040 kPa	325.7
